Results on 73 molecules are retold here after patent US9023882B2, “5-membered nitrogen containing heterocyclic derivatives and pharmaceutical compositions comprising the same” (Kissei Pharmaceutical Co., Ltd., priority 2007, dated 2015).

The target of this experiment is Xanthine oxidase (from bovine milk, Sigma) (Bos taurus (Bovine), UniProt P80457). In words: Xanthine oxidase inhibitory activity. The format is biochemical. To be noted: absorbance at 290 nm. Here is the method:
(1) Preparation of Test Compounds
Test compounds were dissolved in DMSO (Wako) at 40 mM concentration and then diluted to intended concentrations with phosphate-buffered saline (PBS).
(2) Method for Measurement
Xanthine oxidase (from bovine milk, Sigma) was prepared with phosphate-buffered saline (PBS) at 0.02 units/mL, and then the solution was added to 96 well plates at 50 μL/well. In addition, test compounds diluted with PBS were added at 50 μL/well. Xanthine (Wako) at 200 μM prepared with PBS was added at 100 μL/well, and the reaction was conducted for 10 minutes at room temperature. Absorbance at 290 nm was measured using a microplate reader SpectraMax Plus 384 (Molecular device). The absorbance under a condition without xanthine is 0%, and control without test compounds is 100%. Fifty % inhibitory concentration of a test compound (IC50) was calculated (Tables 91 to 92). Ex. No in the table indicates Example number.

[1] abbreviates: 0.02 units/mL, xanthine 200 μM, 10 minutes at room temperature.

Sequence of Xanthine oxidase (from bovine milk, Sigma) (P80457 whole entry): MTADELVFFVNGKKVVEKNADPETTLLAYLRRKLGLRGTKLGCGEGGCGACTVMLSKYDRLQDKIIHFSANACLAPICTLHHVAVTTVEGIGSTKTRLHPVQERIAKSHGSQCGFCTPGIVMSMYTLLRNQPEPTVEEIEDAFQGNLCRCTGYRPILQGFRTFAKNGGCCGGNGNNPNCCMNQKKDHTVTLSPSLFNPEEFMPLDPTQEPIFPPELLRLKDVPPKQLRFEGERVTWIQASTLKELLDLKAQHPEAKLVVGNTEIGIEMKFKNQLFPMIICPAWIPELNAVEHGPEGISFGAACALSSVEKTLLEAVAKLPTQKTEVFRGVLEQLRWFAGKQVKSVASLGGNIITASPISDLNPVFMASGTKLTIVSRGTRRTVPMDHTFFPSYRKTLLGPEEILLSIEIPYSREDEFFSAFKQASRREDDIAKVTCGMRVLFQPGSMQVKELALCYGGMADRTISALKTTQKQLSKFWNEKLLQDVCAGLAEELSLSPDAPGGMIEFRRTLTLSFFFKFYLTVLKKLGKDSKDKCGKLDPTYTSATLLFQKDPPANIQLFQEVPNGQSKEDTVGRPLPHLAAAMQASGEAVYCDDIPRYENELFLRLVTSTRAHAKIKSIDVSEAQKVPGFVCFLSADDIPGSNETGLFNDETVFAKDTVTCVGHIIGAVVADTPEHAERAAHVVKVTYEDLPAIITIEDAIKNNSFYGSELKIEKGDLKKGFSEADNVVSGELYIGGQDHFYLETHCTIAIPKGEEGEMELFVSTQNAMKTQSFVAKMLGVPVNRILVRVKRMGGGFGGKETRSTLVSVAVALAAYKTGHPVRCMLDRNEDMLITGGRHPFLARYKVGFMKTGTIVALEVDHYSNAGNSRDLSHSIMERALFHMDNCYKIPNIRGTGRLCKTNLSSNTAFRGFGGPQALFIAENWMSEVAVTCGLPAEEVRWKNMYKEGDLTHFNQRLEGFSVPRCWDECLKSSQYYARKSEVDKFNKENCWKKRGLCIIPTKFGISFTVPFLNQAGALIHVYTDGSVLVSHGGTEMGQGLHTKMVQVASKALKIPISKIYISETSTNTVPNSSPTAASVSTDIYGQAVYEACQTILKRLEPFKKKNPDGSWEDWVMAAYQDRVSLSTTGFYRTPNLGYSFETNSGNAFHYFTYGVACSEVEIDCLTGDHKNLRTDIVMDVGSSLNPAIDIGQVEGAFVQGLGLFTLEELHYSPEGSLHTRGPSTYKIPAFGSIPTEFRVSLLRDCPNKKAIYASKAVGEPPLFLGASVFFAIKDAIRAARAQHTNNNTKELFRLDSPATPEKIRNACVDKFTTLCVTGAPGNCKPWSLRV

On to `CCCCCc1cn(-c2ccc(C(=O)O)cc2)cc1C#N` [Example 245], for which, under setting [1], half-maximal inhibition (IC50) required 2.8 nM. In other words, the single-digit nanomolar range. `COCCOc1cccc(-c2cn(-c3ccc(C(=O)O)cc3)cc2C#N)c1` [Example 202]: inhibition under setting [1] was half-maximal at 6 nM (IC50). Still for that read-out and setting: next, `N#Cc1cn(-c2ccc(C(=O)O)cc2)cc1CCC1CCCO1` (stereo not shown) [Example 259]: 4.7 nM.

`N#Cc1cn(-c2cc(C(=O)O)ccn2)cc1-c1ccccc1Cl` [Example 364] displayed an IC50 (100 μM xanthine final) of 22.7 nM. `CCCOc1ccccc1-c1cn(-c2ccc(C(=O)O)c(O)c2)cc1C#N` [Example 336] returned an IC50 (100 μM xanthine final) of 36.4 nM. Regarding `COCOc1cccc(-c2cn(-c3ccc(C(=O)O)cc3)cc2C#N)c1` [Example 144], the half-inhibitory concentration (IC50) under setting [1] turned out to be 5.8 nM.

As for `Cc1ccc(-c2cn(-c3cc(C(=O)O)ccn3)cc2C#N)cc1` [Example 363], under “100 μM xanthine final”, the half-maximal inhibitory concentration (IC50) is 21.3 nM. For the setting “100 μM xanthine final”, `COc1ccccc1-c1cn(-c2ccc(C(=O)O)c(O)c2)cc1C#N` [Example 309] returned a half-maximal inhibitory concentration (IC50) of 6.5 nM. This IC50 lies about 3.3-fold lower than the previous one. Under setting [1], `Cc1ccc(-c2cn(-c3ccc(C(=O)O)c(O)c3)cc2C#N)c(C)c1` [Example 273] gave an IC50 of 14.6 nM. The molecule `COc1ccc(-c2cn(-c3ccc(C(=O)O)c(O)c3)cc2C#N)c(F)c1` [Example 283] gave an IC50 (100 μM xanthine final) of 6.2 nM. This counts as single-digit nanomolar. Consider `N#Cc1cn(-c2ccc(C(=O)O)c(O)c2)cc1-c1ccc(O)cc1` [Example 339], for which the midpoint of inhibition (100 μM xanthine final), the IC50, lay at 4.4 nM.

`N#Cc1cn(-c2ccc(C(=O)O)cc2)cc1-c1ccccc1OCCCO` [Example 149]: the IC50 under setting [1] came to 6 nM. That is a single-digit nanomolar value. The same measure, in the same setting: next, `CC(C)COc1cn(-c2ccc(C(=O)O)cc2)cc1C#N` [Example 233]: 2.3 nM. Where the note is “100 μM xanthine final”, `N#Cc1cn(-c2ccc(C(=O)O)c(O)c2)cc1-c1ccc(COc2ccccc2)cc1` [Example 334] displayed an IC50 of 59.5 nM.

In turn, `Cc1cn(-c2ccc(C(=O)O)c(O)c2)cc1C#N` [Example 359] came in with an IC50 (100 μM xanthine final) of 6.1 nM. Same read-out and setting: next, `CCc1c(-c2ccccc2)c(C#N)cn1-c1ccc(C(=O)O)c(O)c1` [Example 327]: 7.1 nM. `N#Cc1cn(-c2ccc(C(=O)O)cc2)cc1C(=O)NCc1ccccc1` [Example 227] registered a 50% inhibitory concentration (IC50) under setting [1] of 3.6 nM. In the case of `CCOC(=O)c1cn(-c2ccc(C(=O)O)cc2)cc1C(F)(F)F` [Example 221], inhibition under setting [1] was half-maximal at 45.4 nM (IC50). Compared with the last molecule, the IC50 is about 13-fold higher. In the case of `N#Cc1cn(-c2ccc(C(=O)O)c(O)c2)cc1-c1nccs1` [Example 348], the 50% inhibitory concentration (IC50) (100 μM xanthine final) worked out at 5.2 nM.

In turn, `N#Cc1cn(-c2ccc(C(=O)O)c(O)c2)cc1-c1csc2ccccc12` [Example 291] yielded a concentration for half-maximal inhibition (IC50) (100 μM xanthine final) of 6.4 nM. `COc1ccc(/C=C/c2cn(-c3ccc(C(=O)O)c(O)c3)cc2C#N)cc1` [Example 295] returned an IC50 (100 μM xanthine final) of 28.8 nM. The molecule `N#Cc1cn(-c2ccc(C(=O)O)c(O)c2)cc1CCc1ccccc1` [Example 287] gave an IC50 (100 μM xanthine final) of 5.8 nM.

Molecule `N#Cc1cn(-c2ccc(C(=O)O)cc2)cc1-c1ccccc1OCc1cccc(F)c1` [Example 171] returned a concentration for half-maximal inhibition (IC50) under setting [1] of 39.8 nM. In other words, the double-digit nanomolar range. The same measure, in the same setting: to `N#Cc1cn(-c2ccc(C(=O)O)cc2)cc1-c1cccc(OCCO)c1` [Example 153] belongs 2.4 nM; to `N#Cc1cn(-c2ccc(C(=O)O)cc2)cc1-c1cccn1Cc1ccccc1` [Example 256], 15.2 nM. On the same count and under the same terms, next, `N#Cc1cn(-c2ccc(C(=O)O)cc2)cc1-c1ccco1` [Example 244]: 3.6 nM.

Under setting [1], `COCCOc1ccccc1-c1cn(-c2ccc(C(=O)O)c(O)c2)cc1C#N` [Example 15, 4-{3-Cyano-4-[2-(2-methoxyethoxy)phenyl]pyrrole-1-yl}-2-hydroxy benzoic acid] yielded a half-inhibitory concentration (IC50) of 13.9 nM.

The molecule `N#Cc1cn(-c2ccc(C(=O)O)cc2)cc1-c1ccccc1OCc1ccccc1` [Example 155] registered an IC50 under setting [1] of 52.4 nM. This IC50 is about 3.8-fold higher than that of the molecule before. On the same count and under the same terms, next, `CCCc1c(C#N)cn(-c2ccc(C(=O)O)cc2)c1C` [Example 239]: 15 nM; `Cc1ccc(-c2cn(-c3ccc(C(=O)O)c(O)c3)cc2C#N)cc1F` [Example 269]: 23.4 nM. As to `COc1cccc(-c2cn(-c3cc(C(=O)O)ccn3)cc2C#N)c1` [Example 367], the IC50 (100 μM xanthine final) is 25 nM.

Molecule `CCOCCOc1ccccc1-c1cn(-c2ccc(C(=O)O)cc2)cc1C#N` [Example 213] registered an IC50 under setting [1] of 16.8 nM. This lies in the double-digit nanomolar range. For the molecule `N#Cc1ccc(-c2cn(-c3ccc(C(=O)O)c(O)c3)cc2C#N)cc1` [Example 331], the 50% inhibitory concentration (IC50) (100 μM xanthine final) was found to be 5.3 nM. Same read-out and setting: to `N#Cc1cn(-c2ccc(C(=O)O)c(O)c2)cc1-c1ccccc1C(F)(F)F` [Example 312] belongs 9.9 nM. Same read-out and setting: next, `COCCOc1cccc(-c2cn(-c3ccc(C(=O)O)c(O)c3)cc2C#N)c1` [Example 345]: 25.7 nM. Consider `N#Cc1ccc(-c2cn(-c3ccc(C(=O)O)cc3)cc2C#N)cc1` [Example 212], for which the IC50 under setting [1] was found to be 5.4 nM. `N#Cc1cn(-c2cc(C(=O)O)ccn2)cc1-c1ccc(Cl)cc1` [Example 365] returned a half-inhibitory concentration (IC50) (100 μM xanthine final) of 33.1 nM. `N#Cc1cn(-c2ccc(C(=O)O)cc2)cc1-c1ccccc1OCc1ccccc1Cl` [Example 177] gave an IC50 under setting [1] of 54.4 nM. The molecule `CCOc1ccccc1-c1cn(-c2ccc(C(=O)O)c(O)c2)cc1C#N` [Example 335] came in with an IC50 (100 μM xanthine final) of 7.9 nM.

Consider `N#Cc1cn(-c2ccc(C(=O)O)cc2)cc1-c1cccc(OCc2cccc(F)c2)c1` [Example 190], for which inhibition under setting [1] was half-maximal at 116 nM (IC50). Consider `N#Cc1cn(-c2ccc(C(=O)O)c(O)c2)cc1-c1ccccc1Oc1ccccc1` [Example 303], for which the IC50 (100 μM xanthine final) is 49.4 nM. For `N#Cc1cn(-c2ccc(C(=O)O)cc2)cc1Cc1ccccc1` [Example 235], under setting [1], half-maximal inhibition (IC50) was put at 8.6 nM. `CC(C)Cc1cn(-c2ccc(C(=O)O)cc2)cc1C#N` [Example 241] returned an IC50 under setting [1] of 3.6 nM. Still for that read-out and setting: next, `N#Cc1cn(-c2ccc(C(=O)O)c(O)c2)cc1-c1ccc(F)cc1F` [Example 267]: 11.6 nM; `N#Cc1cn(-c2ccc(C(=O)O)cc2)cc1-c1ccc2ccccc2c1` [Example 250]: 25.6 nM. Under “100 μM xanthine final”, `COc1ccccc1/C=C/c1cn(-c2ccc(C(=O)O)c(O)c2)cc1C#N` [Example 293] registered an IC50 of 15.9 nM.

Under setting [1], `N#Cc1cn(-c2ccc(C(=O)O)cc2)nc1NC(=O)c1ccccc1` [Example 262] returned a concentration for half-maximal inhibition (IC50) of 3.1 nM.

`N#Cc1cn(-c2ccc(C(=O)O)cc2)cc1-c1ccccc1-c1ccccc1` [Example 161]: under setting [1], it took 31.9 nM to reach half-maximal inhibition (IC50). Still for that read-out and setting: to `N#Cc1cn(-c2ccc(C(=O)O)cc2)cc1-c1ccc(OCC(=O)O)cc1` [Example 160] belongs 2.1 nM. For the molecule `N#Cc1cn(-c2ccc(C(=O)O)c(O)c2)nc1-c1ccccc1` [Example 302], under “100 μM xanthine final”, the half-inhibitory concentration (IC50) stood at 4.9 nM. The molecule `N#Cc1cn(-c2ccc(C(=O)O)c(O)c2)cc1/C=C/c1ccccc1` [Example 288] displayed a 50% inhibitory concentration (IC50) (100 μM xanthine final) of 10.4 nM. In turn, `N#Cc1cn(-c2ccc(C(=O)O)c(O)c2)cc1-c1cccc(F)c1F` [Example 270] showed a half-inhibitory concentration (IC50) under setting [1] of 24.2 nM. Still for that read-out and setting: next, `N#Cc1cn(-c2ccc(C(=O)O)cc2)cc1-c1cccc(CO)c1` [Example 219]: 5 nM; `COc1ccc(-c2cn(-c3ccc(C(=O)O)c(O)c3)cc2C#N)c(OC)c1` [Example 266]: 10.4 nM.

Take `N#Cc1cn(-c2ccc(C(=O)O)cc2)cc1-c1csc2ccccc12` [Example 253]: the midpoint of inhibition under setting [1], the IC50, lay at 5.4 nM. Turning to `N#Cc1cn(-c2ccc(C(=O)O)c(O)c2)cc1-c1ccc2c(c1)OCCO2` [Example 305], 7.3 nM corresponded to half-maximal inhibition (100 μM xanthine final) (IC50). On to `N#Cc1cn(-c2ccc(C(=O)O)cc2)cc1-c1ccccc1OCCO` [Example 152], for which, under setting [1], the IC50 came to 4 nM.

As to `Cc1ccsc1-c1cn(-c2ccc(C(=O)O)c(O)c2)cc1C#N` [Example 311], half-maximal inhibition (100 μM xanthine final) (IC50) was put at 6.9 nM.

In turn, `N#Cc1cn(-c2ccc(C(=O)O)c(O)c2)cc1-c1ccco1` [Example 356] displayed an IC50 (100 μM xanthine final) of 1.7 nM. Same read-out and setting: to `O=C(O)c1ccc(-n2cc(C(=O)O)c(C(F)(F)F)c2)cc1O` [Example 297] belongs 18.9 nM. For the setting “100 μM xanthine final”, `N#Cc1cn(-c2ccc(C(=O)O)c(O)c2)cc1-c1ccccc1Cl` [Example 308] displayed a concentration for half-maximal inhibition (IC50) of 7.5 nM.

`N#Cc1cn(-c2ccc(C(=O)O)cc2)cc1-c1ccccc1OCc1ccc(Cl)cc1` [Example 179]: under setting [1], it took 143 nM to reach half-maximal inhibition (IC50). Molecule `N#Cc1cn(-c2ccc(C(=O)O)c(O)c2)cc1-c1cccc2ccccc12` [Example 325] registered a half-maximal inhibitory concentration (IC50) (100 μM xanthine final) of 13.1 nM. That is a double-digit nanomolar value.

`N#Cc1cn(-c2ccc(C(=O)O)c(O)c2)cc1-c1ccc(C(F)(F)F)cc1` [Example 318] had an IC50 (100 μM xanthine final) of 17 nM. Molecule `Cc1cccc(COc2ccccc2-c2cn(-c3ccc(C(=O)O)cc3)cc2C#N)c1` [Example 168] gave an IC50 under setting [1] of 70 nM. This counts as double-digit nanomolar. Same read-out and setting: next, `N#Cc1cn(-c2ccc(C(=O)O)cc2)cc1-c1cccc(OCc2ccsc2)c1` [Example 174]: 17.6 nM. Where the note is “100 μM xanthine final”, `CCOC(=O)c1cn(-c2ccc(C(=O)O)c(O)c2)cc1C(F)(F)F` [Example 298] displayed a half-maximal inhibitory concentration (IC50) of 6.6 nM. As for `CCCCCCCc1cn(-c2ccc(C(=O)O)cc2)cc1C#N` [Example 247], under setting [1], the IC50 is 8.9 nM.

`N#Cc1cn(-c2ccc(C(=O)O)c(O)c2)cc1-c1ccc(C(=O)O)cc1` [Example 337]: the IC50 (100 μM xanthine final) amounted to 4 nM.

On to `COCOc1ccc(-c2cn(-c3ccc(C(=O)O)cc3)cc2C#N)cc1` [Example 145], for which the IC50 under setting [1] was 4.9 nM. Take `Cc1ccc(COc2cccc(-c3cn(-c4ccc(C(=O)O)cc4)cc3C#N)c2)cc1` [Example 188]: under setting [1], the 50% inhibitory concentration (IC50) is 132 nM. On the same count and under the same terms, next, `N#Cc1cn(-c2ccc(C(=O)O)cc2)cc1-c1cccc(OCCCCO)c1` [Example 200]: 5.9 nM; `COc1ccccc1COc1ccccc1-c1cn(-c2ccc(C(=O)O)cc2)cc1C#N` [Example 183]: 67.3 nM.

By IC50 is commonly meant the concentration at which inhibition is half-maximal. A low value points to greater potency.
